The values that follow come from US9206188B2, “Substituted pyrrolo[2,3-b]pyridines as ITK and JAK inhibitors” (Arrien Pharmaceuticals LLC, priority 2013, dated 2015).

The subject of one data set is T cell receptor. Briefly: SelectScreen cell-based pathway profiling, T cell receptor, NFAT-bla Jurkat, anti-CD3:CD28 stimulated. The conditions noted are these: NFAT-bla Jurkat cells, anti-CD3:CD28 stim.
A further data set deals with JAK3 (Homo sapiens (Human), UniProt P52333). Briefly: JAK3 kinase assay (radiometric filter binding, 10 μM ATP). The format is biochemical. The conditions noted are these: read-out: biochemical IC50 against JAK3.
Another data set addresses ITK (Homo sapiens (Human), UniProt Q08881). Briefly: ITK kinase assay (radiometric filter binding, 10 μM ATP). The class given is biochemical. Conditions: read-out: biochemical IC50 against ITK.
Data set [1] can be described thus: Pharmacokinetics in male Sprague Dawley rats. The class given is in vivo. Conditions: rat, plasma. Here is the method:
The bio-availability and pharmacokinetics of some compounds of the present invention were examined in male Sprague Dawley rats. A total of 6 male rats were used in the study. The study was performed using parallel design (n=3) with serial sampling.
Dose formulations were prepared on the day of doing. Blood samples were collected at 0.083 (only IV), 0.25, 0.5, 1, 2, 4, 8 and 24 h post-dose. At each time point, approximately 0.2 mL of blood was withdrawn from each cannulated rat through jugular vein and transferred to a pre-labeled microfuge tube containing 20 μL of 200 mm K2EDTA permL of blood. Following collection of blood sample, equal volume of heparinized saline was flushed into jugular vein of rat. The blood samples were centrifuged at 5000 g for 5 min at 4±2° C. The plasma was separated within 30 min of scheduled time and stored below −60° C. until bio-analysis. […] The pharmacokinetic parameters for select EXAMPLES were calculated using the non-compartmental analysis tool of validated WinNonlin® software (Version 5.2).

Another data set has as its system JAK2/STAT5. Briefly: SelectScreen cell-based pathway profiling, JAK2/STAT5, irf1-bla TF1, EPO stimulated. The conditions noted are these: irf1-bla TF1 cells, EPO stim.
The test system of data set [2] is JAK/STAT. The data set is described as follows: SelectScreen cell-based pathway profiling, JAK/STAT, SIE-bla HEK 293T, IL-6 stimulated. Conditions: SIE-bla HEK 293T cells, IL-6 stim.
The test system of a further data set is IL-4/STAT6. The data set is described as follows: SelectScreen cell-based pathway profiling, IL-4/STAT6, STAT6-bla RA1, IL-4 stimulated. Conditions: STAT6-bla RA1 cells, IL-4 stim, 10-point titration.
The subject of data set [3] is JAK/STAT. Briefly: SelectScreen cell-based pathway profiling, JAK/STAT, SIE-bla HEK 293T, IFN-gamma stimulated. The conditions noted are these: SIE-bla HEK 293T cells, IFN-gamma stim.
In data set [4] the test system is IL-2 release from CD4+ T cells. Briefly: IL-2 release from CD4+ T cells using HTRF. The class given is cell-based. The conditions noted are these: read-out: inhibition of IL-2 release from CD4+ T cells.
Data set [5] concerns Anti-CD3e antibody induced CD4+ T cell cytokine-IL-2, IL-4 and IFN-γ production. Briefly: Anti-CD3e antibody induced CD4+ T cell cytokine production in male BALB/c mice. Conditions: compared to Positive control; 1.5 hrs post-antibody treatment. The format is in vivo. Here is the method:
1H-pyrrolo[2,3-b]pyridine series of compounds Mice IL-2, IL-4 and IFN-g: 60 mg/Kg is highly efficacious. There is a significant increase in serum IL-2, IL-4 and IFN-gamma (P<0.001) of Positive Control animals compared to negative control animals.

Data set [6] deals with Established Type II Collagen Arthritis. Briefly: 11 day mouse established type II collagen arthritis, PO, BID. The class given is in vivo, DBA/1OlaHsd Mouse. The source says:
Effects of 1H-pyrrolo[2,3-b]pyridine Series of Compounds Administered PO, BID in 11 Day DBA/1OlaHsd Mouse Established Type II Collagen Arthritis

[7] abbreviates: IV 5 mg/kg, solution, male Sprague Dawley rats, mean±SD, n=3.
Where [8] appears, read: PO 20 mg/kg, solution, male Sprague Dawley rats, mean±SD, n=3.

Read-outs that look alike come from different tables or passages of the source.

JAK3, sequence (P52333 whole entry): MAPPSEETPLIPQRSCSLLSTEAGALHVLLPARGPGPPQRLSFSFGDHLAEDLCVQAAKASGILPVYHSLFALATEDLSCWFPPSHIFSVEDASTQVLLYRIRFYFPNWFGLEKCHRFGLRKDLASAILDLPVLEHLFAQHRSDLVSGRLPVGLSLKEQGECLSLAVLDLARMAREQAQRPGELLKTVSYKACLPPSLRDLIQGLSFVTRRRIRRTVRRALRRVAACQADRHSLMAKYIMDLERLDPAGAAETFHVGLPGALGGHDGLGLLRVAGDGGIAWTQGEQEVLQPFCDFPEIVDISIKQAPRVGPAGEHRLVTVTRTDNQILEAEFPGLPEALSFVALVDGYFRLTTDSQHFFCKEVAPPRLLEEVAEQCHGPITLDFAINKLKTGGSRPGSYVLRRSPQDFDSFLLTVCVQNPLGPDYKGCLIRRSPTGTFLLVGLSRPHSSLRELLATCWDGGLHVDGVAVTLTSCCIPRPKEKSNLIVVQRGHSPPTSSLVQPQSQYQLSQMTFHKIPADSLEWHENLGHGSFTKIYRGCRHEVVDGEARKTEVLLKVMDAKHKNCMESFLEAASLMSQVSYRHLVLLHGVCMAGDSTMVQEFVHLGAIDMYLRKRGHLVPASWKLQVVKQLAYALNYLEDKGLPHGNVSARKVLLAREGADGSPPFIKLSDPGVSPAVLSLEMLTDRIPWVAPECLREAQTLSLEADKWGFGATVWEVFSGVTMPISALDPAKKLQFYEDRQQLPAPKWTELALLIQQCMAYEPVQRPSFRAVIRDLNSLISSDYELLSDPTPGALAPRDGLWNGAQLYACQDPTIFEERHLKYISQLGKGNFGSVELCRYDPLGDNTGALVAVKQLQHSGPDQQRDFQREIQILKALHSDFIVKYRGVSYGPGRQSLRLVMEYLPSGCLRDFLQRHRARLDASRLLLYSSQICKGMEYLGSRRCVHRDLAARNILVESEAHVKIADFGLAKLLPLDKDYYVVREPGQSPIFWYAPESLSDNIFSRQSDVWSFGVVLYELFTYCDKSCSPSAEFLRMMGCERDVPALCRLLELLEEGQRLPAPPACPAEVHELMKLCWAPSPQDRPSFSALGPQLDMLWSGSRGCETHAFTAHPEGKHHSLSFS
ITK, sequence (Q08881 whole entry): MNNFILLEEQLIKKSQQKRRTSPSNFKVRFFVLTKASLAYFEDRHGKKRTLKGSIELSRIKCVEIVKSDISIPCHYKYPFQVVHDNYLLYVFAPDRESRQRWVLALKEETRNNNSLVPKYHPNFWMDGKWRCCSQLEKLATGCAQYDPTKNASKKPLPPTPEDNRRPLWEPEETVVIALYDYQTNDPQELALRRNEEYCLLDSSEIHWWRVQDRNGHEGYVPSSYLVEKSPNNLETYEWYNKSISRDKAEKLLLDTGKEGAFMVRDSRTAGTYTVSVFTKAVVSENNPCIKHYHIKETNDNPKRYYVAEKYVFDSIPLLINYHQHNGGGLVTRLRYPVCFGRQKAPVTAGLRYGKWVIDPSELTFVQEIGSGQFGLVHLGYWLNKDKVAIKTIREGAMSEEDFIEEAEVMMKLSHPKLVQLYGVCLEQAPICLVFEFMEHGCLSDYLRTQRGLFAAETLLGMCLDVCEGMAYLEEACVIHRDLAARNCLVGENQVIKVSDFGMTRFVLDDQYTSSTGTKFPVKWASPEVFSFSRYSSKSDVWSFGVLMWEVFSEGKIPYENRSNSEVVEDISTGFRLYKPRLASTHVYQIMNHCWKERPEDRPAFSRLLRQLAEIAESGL

Turning to `Cn1cc(C2=C(c3cn(CCCSC(=N)N)c4ccccc34)C(=O)NC2=O)c2ccccc21` [Ro-31-8220], in the data set on T cell receptor, the IC50 turned out to be 615 nM.

Turning to `C=CC(=O)Nc1cccc(-c2cnc3[nH]cc(Cl)c3c2)c1` [Example 7, N-(3-(3-chloro-1H-pyrrolo[2,3-b]pyridin-5-yl)phenyl)acrylamide], at JAK3, the IC50 fell in the range of 100 to 1000 nM. Also, the IC50 at ITK lay within 100 to 1000 nM. Further, in [1] (male, Sprague Dawley, PO 20 mg/kg vs IV 5 mg/kg, AUCinf and nominal doses used, read-out: F (bioavailability)), the bioavailability is 15%. In [1] (setting [7]), this compound gave an area under the curve AUC(0-inf) of 2620 ± 647 ng·h/mL, an AUC(0-t) of 2600 ng·h/mL, a clearance of 33.4 ± 9.57 mL/min/kg and a half-life of 32.4 ± 3 min. For the same compound, the Cmax in data set [1] (IV 5 mg/kg, solution, male Sprague Dawley rats, mean±SD, n=3, read-out: Cmax (back extrapolated concentration at time zero)) was 3850 ng/mL. For the same compound, the Vd in data set [1] (IV 5 mg/kg, solution, male Sprague Dawley rats, mean±SD, n=3, read-out: Vss) worked out at 1.61 ± 0.28 L/kg. Besides, in data set [1] (setting [8]), the AUC(0-inf) came to 1600 ± 183 ng·h/mL and the AUC(0-t) worked out at 1580 ng·h/mL. For the same compound, the Cmax in [1] (PO 20 mg/kg, solution, male Sprague Dawley rats, mean±SD, n=3, read-out: Cmax) turned out to be 853 ng/mL. In data set [1] (PO 20 mg/kg, solution, male Sprague Dawley rats, median (range), n=3), the Tmax was determined as 15 min.

Consider JAK Inhibitor I, for which the IC50 turned out to be 6.92 nM with JAK2/STAT5, 22 nM with JAK/STAT [2], 14.5 nM with IL-4/STAT6 and 83.5 nM in the data set on JAK/STAT [3].

Take `COc1cc(C)c(Sc2cnc(NC(=O)c3ccc(CNC(C)C(C)(C)C)cc3)s2)cc1C(=O)N1CCN(C(C)=O)CC1` (stereo not shown) [BMS509744]: the IC50 in [4] worked out at 350 nM.

With `C[C@@H]1CCN(C(=O)CC#N)C[C@@H]1N(C)c1ncnc2[nH]ccc12` [Tofacitinib], in data set [5], the “serum IFN-gamma” value is reported as “significant decrease”, the “serum IL-2” value is reported as “significant decrease” and the “serum IL-4” value was “significant decrease”. In addition, the “effectiveness, suppression of the inflammatory response” value in data set [6] (collagen-induced arthritis in mice) turned out to be 97%. For the same compound, the body weight result in data set [6] (series 100 mg/kg group, Tofacitinib 60 mg/Kg) is recorded as “body weight change from day 1”. Moreover, in data set [6] (treated mice, in vivo studies), the fever entry is listed as “had fever”.

For the compound `C[C@@H]1C[C@H]2[C@@H]3CCC4=CC(=O)C=C[C@]4(C)[C@@]3(F)[C@@H](O)C[C@]2(C)[C@@]1(O)C(=O)CO` [Dexamethasone], in data set [5], the “serum IFN-gamma” value was “significant decrease”, the “serum IL-2” value is recorded as “significant decrease” and the “serum IL-4” value was “significant decrease”.
